Laboratory results published in article PMC4503722, “Novel Phenotypic Outcomes Identified for a Public Collection of Approved Drugs from a Publicly Accessible Panel of Assays” (PLoS ONE, 2015).
pIC50: −log10 of the molar value. Like-named read-outs stand apart in the source and are kept apart here.

How the values were obtained:
[1] = system: DLD-1; assay: cells; type: cell-based; conditions: for pIC50: read-out: Basal_Viability ATP DLD-1 summarized IC50
[2] = target: T1, hJAK2 (Homo sapiens, UniProt O60674); assay: Cerep LANCE kinase assay hJAK2 (S1 assay 33); type: biochemical; conditions: for pIC50: read-out: hJAK2 LANCE summarized IC50
T1 construct: purchased Cerep (LANCE kinase assay platform, contract assay)

[3] = system: SW480; assay: cells; type: cell-based; conditions: for pIC50: read-out: Basal_Viability ATP SW480 summarized IC50
[4] = target: T2, hp70S6K1 (RPS6KB1) (Homo sapiens, UniProt P23443); assay: Cerep LANCE kinase assay hp70S6K1 (S1 assay 31); type: biochemical; conditions: for pIC50: read-out: hp70S6K1 LANCE summarized IC50
T2 construct: purchased Cerep (LANCE kinase assay platform, contract assay)

[5] = target: T3, hFLT3 (Homo sapiens, UniProt P36888); assay: Cerep LANCE kinase assay hFLT3 (S1 assay 35); type: biochemical; conditions: for pIC50: read-out: hFLT3 LANCE summarized IC50
T3 construct: purchased Cerep (LANCE kinase assay platform, contract assay)

[6] = target: T4, hGSK3b (Homo sapiens, UniProt P49841); assay: Cerep LANCE kinase assay hGSK3b (S1 assay 34); type: biochemical; conditions: for pIC50: read-out: hGSK3b LANCE summarized IC50
T4 construct: purchased Cerep (LANCE kinase assay platform, contract assay)

[7] = target: T5, hKDR (Homo sapiens, UniProt P35968); assay: Cerep LANCE kinase assay hKDR (S1 assay 32); type: biochemical; conditions: for pIC50: read-out: hKDR LANCE summarized IC50
T5 construct: purchased Cerep (LANCE kinase assay platform, contract assay)

[8] = system: HCT116; assay: cells; type: cell-based; conditions: for pIC50: read-out: Basal_Viability ATP HCT116 summarized IC50
[9] = system: HeLa cells; assay: cells; type: cell-based;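 for Hela CellCycMod PI 4N summarized IC50: value tracks stimulation of 4N DNA content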
[10] = system: Colo320; assay: cells; type: cell-based; conditions: for pIC50: read-out: Basal_Viability ATP Colo 320 summarized IC50
[11] = system: RKO; assay: cells; type: cell-based; conditions: for pIC50: read-out: Basal_Viability ATP RKO summarized IC50
[12] = system: HCT116 cells treated with a GSK3β inhibitor; assay: cells; type: cell-based; conditions: for IC50/EC50, GSK3b inh pretreated_Viability ATP HCT116 (assay number 26): GSK3b inh pretreated; for pIC50: read-out: GSK3b inh pretreated_Viability ATP HCT116 summarized IC50
[13] = system: HT-29; assay: cells; type: cell-based; conditions: for pIC50: read-out: Basal_Viability ATP HT-29 summarized IC50
[14] = system: SNU-C1; assay: cells; type: cell-based; conditions: for pIC50: read-out: Basal_Viability ATP SNU-C1 summarized IC50
[15] = system: endothelial tube formation in co-cultures of ECFCs and ADSCs treated with VEGF; assay: cells; type: cell-based, human; conditions: for pIC50: read-out: VEGF_ADSC\ECFC Angio CD31 TubeArea summarized IC50
[16] = system: ECFC/ADSC co-culture cell nuclei number; conditions: for pIC50: read-out: VEGF_ADSC\ECFC Angio Hoechst NucArea summarized IC50
[17] = assay number 14, 2N, read-out: Hela CellCycMod PI 2N summarized IC50
[18] = assay number 16, 4N, read-out: Hela CellCycMod PI 4N summarized IC50
[19] = assay number 17, MI, read-out: Hela CellCycMod PI MI summarized IC50
[20] = assay number 26, GSK3b inhibitor pretreated

T3 sequence (P36888 27-993): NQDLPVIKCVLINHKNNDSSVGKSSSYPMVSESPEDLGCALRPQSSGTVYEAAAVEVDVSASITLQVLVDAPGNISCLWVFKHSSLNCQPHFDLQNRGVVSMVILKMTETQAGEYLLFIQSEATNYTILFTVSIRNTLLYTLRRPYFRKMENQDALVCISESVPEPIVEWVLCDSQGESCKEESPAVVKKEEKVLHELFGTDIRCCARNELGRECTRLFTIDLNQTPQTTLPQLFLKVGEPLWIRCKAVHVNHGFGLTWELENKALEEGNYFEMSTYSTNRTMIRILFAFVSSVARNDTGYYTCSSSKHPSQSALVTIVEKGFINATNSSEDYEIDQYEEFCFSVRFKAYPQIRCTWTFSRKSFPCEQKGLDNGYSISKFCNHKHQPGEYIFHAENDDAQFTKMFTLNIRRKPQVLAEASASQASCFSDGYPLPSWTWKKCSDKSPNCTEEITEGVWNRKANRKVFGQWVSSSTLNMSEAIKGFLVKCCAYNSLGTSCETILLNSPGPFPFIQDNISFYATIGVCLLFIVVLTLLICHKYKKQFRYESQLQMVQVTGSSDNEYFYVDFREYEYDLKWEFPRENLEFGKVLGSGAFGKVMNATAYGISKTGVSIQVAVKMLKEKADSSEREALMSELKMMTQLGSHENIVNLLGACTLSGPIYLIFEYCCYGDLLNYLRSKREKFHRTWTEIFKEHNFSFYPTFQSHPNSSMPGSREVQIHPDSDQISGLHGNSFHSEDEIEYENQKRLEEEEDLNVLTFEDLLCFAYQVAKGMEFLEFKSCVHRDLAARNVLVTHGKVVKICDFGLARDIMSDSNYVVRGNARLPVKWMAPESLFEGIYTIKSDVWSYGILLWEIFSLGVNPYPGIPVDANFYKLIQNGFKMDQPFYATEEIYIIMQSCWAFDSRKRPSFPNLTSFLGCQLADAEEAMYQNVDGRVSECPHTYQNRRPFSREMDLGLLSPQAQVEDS
T2 sequence (P23443 whole entry): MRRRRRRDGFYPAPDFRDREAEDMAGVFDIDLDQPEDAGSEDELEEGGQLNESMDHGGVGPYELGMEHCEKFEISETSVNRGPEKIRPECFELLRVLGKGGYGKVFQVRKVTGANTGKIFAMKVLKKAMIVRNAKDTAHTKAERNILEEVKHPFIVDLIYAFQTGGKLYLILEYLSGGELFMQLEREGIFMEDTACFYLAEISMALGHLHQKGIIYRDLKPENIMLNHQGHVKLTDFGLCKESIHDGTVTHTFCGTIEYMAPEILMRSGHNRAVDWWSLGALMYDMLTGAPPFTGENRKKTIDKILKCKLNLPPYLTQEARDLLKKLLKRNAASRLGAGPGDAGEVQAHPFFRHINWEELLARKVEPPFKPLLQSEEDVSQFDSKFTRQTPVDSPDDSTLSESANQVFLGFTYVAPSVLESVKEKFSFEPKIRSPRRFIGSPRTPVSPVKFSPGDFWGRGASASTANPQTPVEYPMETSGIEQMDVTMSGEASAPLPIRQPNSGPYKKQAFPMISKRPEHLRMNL
T4 sequence (P49841 whole entry): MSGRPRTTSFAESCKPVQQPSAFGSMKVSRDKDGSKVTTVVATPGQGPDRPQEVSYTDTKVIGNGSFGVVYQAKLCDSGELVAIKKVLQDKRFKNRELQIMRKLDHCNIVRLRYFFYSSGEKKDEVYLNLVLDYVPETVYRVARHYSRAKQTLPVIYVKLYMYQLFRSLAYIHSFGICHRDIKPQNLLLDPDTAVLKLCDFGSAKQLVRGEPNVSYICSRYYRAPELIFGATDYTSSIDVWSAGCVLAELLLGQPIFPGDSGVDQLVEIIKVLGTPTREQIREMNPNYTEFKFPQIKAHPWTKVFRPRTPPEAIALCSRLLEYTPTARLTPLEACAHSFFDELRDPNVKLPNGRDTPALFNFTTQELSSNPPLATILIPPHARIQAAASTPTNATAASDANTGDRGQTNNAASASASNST
T1 sequence (O60674 whole entry): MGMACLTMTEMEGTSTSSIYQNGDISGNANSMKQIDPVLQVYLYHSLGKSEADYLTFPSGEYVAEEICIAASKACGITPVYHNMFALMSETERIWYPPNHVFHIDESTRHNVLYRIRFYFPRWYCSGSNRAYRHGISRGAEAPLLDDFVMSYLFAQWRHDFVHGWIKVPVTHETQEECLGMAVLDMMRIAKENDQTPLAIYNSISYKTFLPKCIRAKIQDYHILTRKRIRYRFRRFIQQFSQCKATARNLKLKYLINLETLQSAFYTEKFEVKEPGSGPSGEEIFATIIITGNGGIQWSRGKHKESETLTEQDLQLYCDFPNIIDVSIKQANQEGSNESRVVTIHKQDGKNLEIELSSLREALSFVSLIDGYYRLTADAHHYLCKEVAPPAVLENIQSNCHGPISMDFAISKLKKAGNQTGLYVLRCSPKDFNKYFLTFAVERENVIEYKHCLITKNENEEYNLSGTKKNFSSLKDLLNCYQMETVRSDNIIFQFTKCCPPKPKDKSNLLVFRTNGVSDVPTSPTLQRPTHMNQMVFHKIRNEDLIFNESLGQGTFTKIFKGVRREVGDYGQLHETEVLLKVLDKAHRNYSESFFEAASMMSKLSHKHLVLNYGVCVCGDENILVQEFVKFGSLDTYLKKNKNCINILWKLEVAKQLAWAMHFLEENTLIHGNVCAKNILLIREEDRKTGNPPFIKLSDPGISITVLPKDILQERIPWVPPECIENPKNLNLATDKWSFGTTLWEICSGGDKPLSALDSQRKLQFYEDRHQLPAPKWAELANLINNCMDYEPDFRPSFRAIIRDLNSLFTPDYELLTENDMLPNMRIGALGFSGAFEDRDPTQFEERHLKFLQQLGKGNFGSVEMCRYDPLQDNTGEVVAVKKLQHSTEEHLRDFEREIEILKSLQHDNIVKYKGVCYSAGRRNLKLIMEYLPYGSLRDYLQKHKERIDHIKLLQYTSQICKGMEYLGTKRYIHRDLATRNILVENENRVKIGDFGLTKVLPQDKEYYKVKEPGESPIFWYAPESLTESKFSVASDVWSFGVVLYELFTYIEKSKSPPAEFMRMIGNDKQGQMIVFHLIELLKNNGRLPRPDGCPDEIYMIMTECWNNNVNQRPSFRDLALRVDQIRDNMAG
T5 sequence (P35968 20-1356): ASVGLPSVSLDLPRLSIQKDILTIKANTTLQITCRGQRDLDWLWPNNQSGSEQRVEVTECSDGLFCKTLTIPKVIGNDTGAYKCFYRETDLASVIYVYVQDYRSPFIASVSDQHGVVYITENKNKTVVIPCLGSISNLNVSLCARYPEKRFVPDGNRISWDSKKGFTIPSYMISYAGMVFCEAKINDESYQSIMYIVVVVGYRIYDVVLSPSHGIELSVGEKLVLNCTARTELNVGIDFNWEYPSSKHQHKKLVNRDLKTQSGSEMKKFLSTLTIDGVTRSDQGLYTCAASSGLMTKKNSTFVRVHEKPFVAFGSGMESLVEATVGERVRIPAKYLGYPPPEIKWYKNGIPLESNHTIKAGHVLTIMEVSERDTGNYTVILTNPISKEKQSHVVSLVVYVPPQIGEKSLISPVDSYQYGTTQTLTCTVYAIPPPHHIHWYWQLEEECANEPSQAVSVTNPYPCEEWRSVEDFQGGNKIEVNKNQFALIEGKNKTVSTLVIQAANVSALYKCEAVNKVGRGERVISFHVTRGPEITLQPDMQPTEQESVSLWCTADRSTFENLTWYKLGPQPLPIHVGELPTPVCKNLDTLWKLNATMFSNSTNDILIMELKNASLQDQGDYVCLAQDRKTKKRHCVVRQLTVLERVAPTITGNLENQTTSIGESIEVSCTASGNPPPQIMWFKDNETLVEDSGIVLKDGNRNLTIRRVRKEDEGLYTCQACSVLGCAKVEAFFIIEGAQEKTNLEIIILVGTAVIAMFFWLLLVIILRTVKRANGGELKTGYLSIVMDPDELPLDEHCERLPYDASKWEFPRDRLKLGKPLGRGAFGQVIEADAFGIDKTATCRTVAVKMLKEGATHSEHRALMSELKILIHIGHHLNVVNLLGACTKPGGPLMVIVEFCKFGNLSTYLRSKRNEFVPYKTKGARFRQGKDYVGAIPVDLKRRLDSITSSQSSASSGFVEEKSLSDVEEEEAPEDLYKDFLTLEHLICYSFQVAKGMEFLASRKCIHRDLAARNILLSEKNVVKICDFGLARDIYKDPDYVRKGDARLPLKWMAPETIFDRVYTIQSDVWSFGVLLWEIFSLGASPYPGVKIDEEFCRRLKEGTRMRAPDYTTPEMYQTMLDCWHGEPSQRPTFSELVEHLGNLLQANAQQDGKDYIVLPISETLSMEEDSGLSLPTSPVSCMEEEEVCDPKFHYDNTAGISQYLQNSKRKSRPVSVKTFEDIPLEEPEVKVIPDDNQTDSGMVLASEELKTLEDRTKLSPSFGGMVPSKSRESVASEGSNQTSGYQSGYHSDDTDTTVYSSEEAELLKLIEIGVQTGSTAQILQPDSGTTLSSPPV

## Cn1cnc([N+](=O)[O-])c1Sc1ncnc2nc[nH]c12 [NCGC00015060-18]
[1]; basal
  IC50/EC50, Basal_Viability ATP DLD-1 (assay number 23): 0.3635 µM
[2]
  IC50/EC50, hJAK2 LANCE (assay number 33): > 20 µM
[3]; basal
  IC50/EC50, Basal_Viability ATP SW480 (assay number 24): 9.4353 µM
[4]
  IC50/EC50, hp70S6K1 LANCE (assay number 31): > 20 µM
[5]
  IC50/EC50, hFLT3 LANCE (assay number 35): > 20 µM
[6]
  IC50/EC50, hGSK3b LANCE (assay number 34): > 20 µM
[7]
  IC50/EC50, hKDR LANCE (assay number 32): > 20 µM
[8]; basal
  IC50/EC50, Basal_Viability ATP HCT116 (assay number 25): 0.2074 µM
[9]; 2N
  IC50/EC50, Hela CellCycMod PI 2N (assay number 14): > 10 µM
[9]; 4N
  IC50/EC50, Hela CellCycMod PI 4N (assay number 16): > 10 µM
[9]
  IC50/EC50, Hela CellCycMod PI Cell Number (assay number 18): > 10 µM
  IC50/EC50, Hela CellCycMod PI S Phase (assay number 15): > 10 µM
[9]; MI
  IC50/EC50, Hela CellCycMod PI MI (assay number 17): > 10 µM
[10]; basal
  IC50/EC50, Basal_Viability ATP Colo 320 (assay number 27): 10.3402 µM
[11]; basal
  IC50/EC50, Basal_Viability ATP RKO (assay number 29): 2.661 µM
[12]
  IC50/EC50, GSK3b inh pretreated_Viability ATP HCT116 (assay number 26): 0.6232 µM
[13]; basal
  IC50/EC50, Basal_Viability ATP HT-29 (assay number 28): > 20 µM
[14]; basal
  IC50/EC50, Basal_Viability ATP SNU-C1 (assay number 30): > 20 µM

## O=c1[nH]c(=O)n([C@H]2C[C@H](O)[C@@H](CO)O2)cc1F [NCGC00023722-08]
[1]; basal
  IC50/EC50, Basal_Viability ATP DLD-1 (assay number 23): 0.001 µM
[15]
  IC50/EC50, VEGF_ADSC\ECFC Angio CD31 TubeArea (assay number 2): 0.0216 µM
[2]
  IC50/EC50, hJAK2 LANCE (assay number 33): > 20 µM
[16]
  IC50/EC50, VEGF_ADSC\ECFC Angio Hoechst NucArea (assay number 3): > 10 µM
[3]; basal
  IC50/EC50, Basal_Viability ATP SW480 (assay number 24): > 20 µM
[4]
  IC50/EC50, hp70S6K1 LANCE (assay number 31): > 20 µM
[5]
  IC50/EC50, hFLT3 LANCE (assay number 35): > 20 µM
[6]
  IC50/EC50, hGSK3b LANCE (assay number 34): > 20 µM
[7]
  IC50/EC50, hKDR LANCE (assay number 32): > 20 µM
[8]; basal
  IC50/EC50, Basal_Viability ATP HCT116 (assay number 25): 0.001 µM
[9]; 2N
  IC50/EC50, Hela CellCycMod PI 2N (assay number 14): > 10 µM
[9]; 4N
  IC50/EC50, Hela CellCycMod PI 4N (assay number 16): > 10 µM
[9]
  IC50/EC50, Hela CellCycMod PI Cell Number (assay number 18): > 10 µM
  IC50/EC50, Hela CellCycMod PI S Phase (assay number 15): 0.1688 µM
[9]; MI
  IC50/EC50, Hela CellCycMod PI MI (assay number 17): > 10 µM
[10]; basal
  IC50/EC50, Basal_Viability ATP Colo 320 (assay number 27): > 20 µM
[11]; basal
  IC50/EC50, Basal_Viability ATP RKO (assay number 29): 0.001 µM
[12]
  IC50/EC50, GSK3b inh pretreated_Viability ATP HCT116 (assay number 26): 0.001 µM
[13]; basal
  IC50/EC50, Basal_Viability ATP HT-29 (assay number 28): > 20 µM
[14]; basal
  IC50/EC50, Basal_Viability ATP SNU-C1 (assay number 30): > 20 µM

## S=c1nc[nH]c2nc[nH]c12 [NCGC00094717-06]
[1]; assay number 23, basal
  pIC50: 6.59
[15]
  pIC50: 6.04
[2]; assay number 33
  pIC50: < 4.70
[16]
  pIC50: < 5.00
[3]; assay number 24, basal
  pIC50: 5.98
[4]; assay number 31
  pIC50: < 4.70
[5]; assay number 35
  pIC50: < 4.70
[6]; assay number 34
  pIC50: < 4.70
[7]; assay number 32
  pIC50: < 4.70
[8]; assay number 25, basal
  pIC50: 6.59
[9]; [17]
  pIC50: < 5.00
[9]; [18]
  pIC50: < 5.00
[9]; [19]
  pIC50: < 5.00
[9]; assay number 18, cell number, read-out: Hela CellCycMod PI Cell Number summarized IC50
  pIC50: < 5.00
[10]; assay number 27, basal
  pIC50: 5.89
[11]; assay number 29, basal
  pIC50: 6.18
[12]; [20]
  pIC50: 5.85
[13]; assay number 28, basal
  pIC50: 6.20
[14]; assay number 30, basal
  pIC50: < 4.70

## Oc1c(Cl)cc(Cl)c2cccnc12 [NCGC00095264-04]
[1]; assay number 23, basal
  pIC50: 6.39
[15]
  pIC50: 5.70
[2]; assay number 33
  pIC50: < 4.70
[16]
  pIC50: < 5.00
[3]; assay number 24, basal
  pIC50: 7.36
[4]; assay number 31
  pIC50: < 4.70
[5]; assay number 35
  pIC50: < 4.70
[6]; assay number 34
  pIC50: < 4.70
[7]; assay number 32
  pIC50: < 4.70
[8]; assay number 25, basal
  pIC50: 7.32
[9]; [17]
  pIC50: < 5.00
[9]; [18]
  pIC50: < 5.00
[9]; [19]
  pIC50: < 5.00
[10]; assay number 27, basal
  pIC50: 7.31
[11]; assay number 29, basal
  pIC50: 7.20
[12]; [20]
  pIC50: 7.41
[13]; assay number 28, basal
  pIC50: < 4.70
[14]; assay number 30, basal
  pIC50: 6.31

## COc1c(C)c2c(c(O)c1C/C=C(\C)CCC(=O)OCCN1CCOCC1)C(=O)OC2 [NCGC00159459-04]
[1]; assay number 23, basal
  Basal_Viability ATP DLD-1 IC50/EC50: > 20 µM
[15]
  VEGF_ADSC\ECFC Angio CD31 TubeArea IC50/EC50: 1.2605 µM
[2]; assay number 33
  hJAK2 LANCE IC50/EC50: > 20 µM
[16]
  VEGF_ADSC\ECFC Angio Hoechst NucArea IC50/EC50: > 10 µM
[3]; assay number 24, basal
  Basal_Viability ATP SW480 IC50/EC50: 2.5974 µM
[4]; assay number 31
  hp70S6K1 LANCE IC50/EC50: > 20 µM
[5]; assay number 35
  hFLT3 LANCE IC50/EC50: > 20 µM
[6]; assay number 34
  hGSK3b LANCE IC50/EC50: > 20 µM
[7]; assay number 32
  hKDR LANCE IC50/EC50: > 20 µM
[8]; assay number 25, basal
  Basal_Viability ATP HCT116 IC50/EC50: 0.0672 µM
[9]; assay number 14, 2N
  Hela CellCycMod PI 2N IC50/EC50: > 10 µM
[9]; assay number 15, S phase
  Hela CellCycMod PI S Phase IC50/EC50: 0.0147 µM
[9]; assay number 16, 4N
  Hela CellCycMod PI 4N IC50/EC50: > 10 µM
[9]; assay number 17, MI
  Hela CellCycMod PI MI IC50/EC50: > 10 µM
[9]; assay number 18, cell number
  Hela CellCycMod PI Cell Number IC50/EC50: > 10 µM
[10]; assay number 27, basal
  Basal_Viability ATP Colo 320 IC50/EC50: 0.001 µM
[11]; assay number 29, basal
  Basal_Viability ATP RKO IC50/EC50: 0.1648 µM
[12]; [20]
  GSK3b inh pretreated_Viability ATP HCT116 IC50/EC50: 0.0498 µM
[13]; assay number 28, basal
  Basal_Viability ATP HT-29 IC50/EC50: > 20 µM
[14]; assay number 30, basal
  Basal_Viability ATP SNU-C1 IC50/EC50: > 20 µM

## Nc1nc(=S)c2[nH]cnc2[nH]1 [NCGC00263442-01]
[1]
  pIC50: 6.97
[15]
  pIC50: 6.21
[2]
  pIC50: < 4.70
[16]
  pIC50: < 5.00
[3]
  pIC50: 6.40
[4]
  pIC50: < 4.70
[5]
  pIC50: < 4.70
[6]
  pIC50: < 4.70
[7]
  pIC50: < 4.70
[8]
  pIC50: 6.86
[9]; read-out: Hela CellCycMod PI 2N summarized IC50
  pIC50: < 5.00
[9]; read-out: Hela CellCycMod PI 4N summarized IC50
  pIC50: < 5.00
[9]; read-out: Hela CellCycMod PI Cell Number summarized IC50
  pIC50: < 5.00
[9]; read-out: Hela CellCycMod PI MI summarized IC50
  pIC50: < 5.00
[9]; read-out: Hela CellCycMod PI S Phase summarized IC50
  pIC50: < 5.00
[10]
  pIC50: 6.43
[11]
  pIC50: 6.46
[12]
  pIC50: 6.79
[13]
  pIC50: 7.31
[14]
  pIC50: 5.36
